Data: US10173991B2, “Sulfone amide linked benzothiazole inhibitors of endothelial lipase” (BRISTOL-MYERS SQUIBB COMPANY, priority 2014, dated 2019)

molecular target: Endothelial lipase (EL) (Homo sapiens (Human), UniProt Q9Y5X9); assay: Endothelial lipase (EL) enzymatic assay with fluorescent substrate A10070 in DMPG vesicles; assay type: biochemical
How it was run: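 Substrate A10070 sits in sonicated DMPG vesicles at 0.11 mole fraction. Lipase and compound preincubated 30 min, 37° C, in HEPES pH 8.0 buffer with CaCl2.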

Sequence of Endothelial lipase (EL) (Q9Y5X9 21-500): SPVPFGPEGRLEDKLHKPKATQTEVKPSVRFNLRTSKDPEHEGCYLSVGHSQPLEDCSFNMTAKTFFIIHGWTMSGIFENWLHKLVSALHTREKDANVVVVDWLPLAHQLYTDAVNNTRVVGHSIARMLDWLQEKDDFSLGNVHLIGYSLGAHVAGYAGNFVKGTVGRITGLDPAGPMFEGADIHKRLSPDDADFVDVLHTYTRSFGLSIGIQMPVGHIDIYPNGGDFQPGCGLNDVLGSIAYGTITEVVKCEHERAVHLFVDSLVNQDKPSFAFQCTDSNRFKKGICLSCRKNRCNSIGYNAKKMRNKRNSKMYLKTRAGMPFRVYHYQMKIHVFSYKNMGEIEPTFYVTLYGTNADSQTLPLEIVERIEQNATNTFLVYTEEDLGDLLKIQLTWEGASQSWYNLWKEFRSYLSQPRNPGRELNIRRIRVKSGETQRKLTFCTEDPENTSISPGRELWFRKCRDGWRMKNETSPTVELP

Compared with `COCCS(=O)(=O)C(C(=O)NCC(=O)NC1CC1)c1nc2ccc(-c3ccncc3Cl)cc2s1` (stereo not shown) [Example 288, 2-[6-(3-chloropyridin-4-yl)-1,3-benzothiazol-2-yl]-N-[(cyclopropyl-carbamoyl)methyl]-2-(2-methoxyethane-sulfonyl)acetamide], `COCCS(=O)(=O)C(C(=O)NCC(=O)NC1CC1)c1nc2ccc(-c3cccnc3Cl)cc2s1` (stereo not shown) [Example 297, 2-[6-(2-chloropyridin-3-yl)-1,3-benzothiazol-2-yl]-N-2-(2-methoxyethane-sulfonyl)acetamide] is 5.7-fold higher in IC50: 15 nM for the first, 85 nM for the second. The first is the more potent here.

First: COCCS(=O)(=O)C(C(=O)NCC(=O)NC1CC1)c1nc2ccc(-c3ccncc3)cc2s1 (stereo not shown) [Example 289, N-[(cyclopropyl-carbamoyl)methyl]-2-(2-methoxyethane-sulfonyl)-2-[6-(pyridin-4-yl)-1,3-benzothiazol-2-yl] acetamide]
Second: COCCS(=O)(=O)C(C(=O)NCC(=O)NC1CC1)c1nc2ccc(-c3ccccc3)cc2s1 (stereo not shown) [Example 305, N-[(cyclopropyl-carbamoyl)methyl]-2-(2-methoxyethane-sulfonyl)-2-(6-phenyl-1,3-benzothiazol-2-yl) acetamide]
The IC50 of the first is 3.3-fold higher: 23 nM for the first, 7 nM for the second.

First: COCCS(=O)(=O)C(C(=O)NCC(=O)NC1CC1)c1nc2ccc(-c3ccnc(C(F)(F)F)c3)cc2s1 (stereo not shown) [Example 290, N-[(cyclopropyl-carbamoyl)methyl]-2-(2-methoxyethane-sulfonyl)-2-{6-[2-(trifluoromethyl)pyridin-4-yl]-1,3-benzothiazol-2-yl} acetamide]
Second: COCCS(=O)(=O)C(C(=O)NCC(=O)NC1CC1)c1nc2ccc(-c3ccc(C(F)(F)F)nc3)cc2s1 (stereo not shown) [Example 296, N-[(cyclopropyl-carbamoyl)methyl]-2-(2-methoxyethane-sulfonyl)-2-{6-[6-(trifluoromethyl)pyridin-3-yl]-1,3-benzothiazol-2-yl}acetamide]
The IC50 of the first is 3-fold lower: 23 nM for the first, 69 nM for the second.

Going from `COCCS(=O)(=O)C(C(=O)NCC(=O)NC1CC1)c1nc2ccc(-c3ccc(OC(C)C)nc3)cc2s1` (stereo not shown) [Example 291, N-[(cyclopropyl-carbamoyl)methyl]-2-(2-methoxyethane-sulfonyl)-2-{6-[6-(propan-2-yloxy)pyridin-3-yl]-1,3-benzothiazol-2-yl} acetamide] to `CCOc1ccc(-c2ccc3nc(C(C(=O)NCC(=O)NC4CC4)S(=O)(=O)CCOC)sc3c2)cn1` (stereo not shown) [Example 299, N-[(cyclopropyl-carbamoyl)methyl]-2-[6-(6-ethoxypyridin-3-yl)-1,3-benzothiazol-2-yl]-2-(2-methoxyethane-sulfonyl)acetamide], the IC50 rises from 29 nM to 118 nM (4.1-fold).

`COCCS(=O)(=O)C(C(=O)NCC(=O)NC1CC1)c1nc2ccc(-c3cnnc(C)c3)cc2s1` (stereo not shown) [Example 292, N-[(cyclopropyl-carbamoyl)methyl]-2-(2-methoxyethane-sulfonyl)-2-[6-(6-methylpyridazin-4-yl)-1,3-benzothiazol-2-yl]acetamide] and `COCCS(=O)(=O)C(C(=O)NCC(=O)NC1CC1)c1nc2ccc(-c3cnc(F)c(C)c3)cc2s1` (stereo not shown) [Example 294, N-[(cyclopropyl-carbamoyl)methyl]-2-[6-(6-fluoro-5-methylpyridin-3-yl)-1,3-benzothiazol-2-yl]-2-(2-methoxyethane-sulfonyl)acetamide] are within 1.5-fold of each other in IC50: 31 nM for the first, 36 nM for the second.

First: CCOc1ncccc1-c1ccc2nc(C(C(=O)NCC(=O)NC3CC3)S(=O)(=O)CCOC)sc2c1 (stereo not shown) [Example 293, N-[(cyclopropyl-carbamoyl)methyl]-2-[6-(2-ethoxypyridin-3-yl)-1,3-benzothiazol-2-yl]-2-(2-methoxyethane-sulfonyl)acetamide]
Second: COCCS(=O)(=O)C(C(=O)NCC(=O)NC1CC1)c1nc2ccc(-c3cccnc3F)cc2s1 (stereo not shown) [Example 318, N-[(cyclopropyl-carbamoyl)methyl]-2-[6-(2-fluoropyridin-3-yl)-1,3-benzothiazol-2-yl]-2-(2-methoxyethane-sulfonyl)acetamide]
The IC50 of the first is 4.7-fold higher: 33 nM for the first, 7 nM for the second.

Compared with `COCCS(=O)(=O)C(C(=O)NCC(=O)NC1CC1)c1nc2ccc(-c3ccc(C4CC4)nc3)cc2s1` (stereo not shown) [Example 300, N-[(cyclopropyl-carbamoyl)methyl]-2-[6-(6-cyclopropyl-pyridin-3-yl)-1,3-benzothiazol-2-yl]-2-(2-methoxyethane-sulfonyl)acetamide], `COCCS(=O)(=O)C(C(=O)NCC(=O)NC1CC1)c1nc2ccc(-c3ccc(Cl)cn3)cc2s1` (stereo not shown) [Example 303, 2-[6-(5-chloropyridin-2-yl)-1,3-benzothiazol-2-yl]-N-[(cyclopropyl-carbamoyl)methyl]-2-(2-methoxyethane-sulfonyl)acetamide] is 2-fold higher in IC50: 125 nM for the first, 247 nM for the second.

First: COCCS(=O)(=O)C(C(=O)NCC(=O)NC1CC1)c1nc2ccc(-c3cnc(C(F)(F)F)nc3)cc2s1 (stereo not shown) [Example 301, N-[(cyclopropyl-carbamoyl)methyl]-2-(2-methoxyethane-sulfonyl)-2-{6-[2-(trifluoromethyl)pyrimidin-5-yl]-1,3-benzothiazol-2-yl}acetamide]
Second: COCCS(=O)(=O)C(C(=O)NCC(=O)NC1CC1)c1nc2ccc(-c3cncnc3)cc2s1 (stereo not shown) [Example 310, N-[(cyclopropyl-carbamoyl)methyl]-2-(2-methoxyethane-sulfonyl)-2-[6-(pyrimidin-5-yl)-1,3-benzothiazol-2-yl]acetamide]
The IC50 of the first is 1.7-fold higher: 155 nM for the first, 93 nM for the second.

`COCCS(=O)(=O)C(C(=O)NCC(=O)NC1CC1)c1nc2ccc(-c3ccc(F)nc3F)cc2s1` (stereo not shown) [Example 302, N-[(cyclopropyl-carbamoyl)methyl]-2-[6-(2,6-difluoropyridin-3-yl)-1,3-benzothiazol-2-yl]-2-(2-methoxyethane-sulfonyl)acetamide] and `COCCS(=O)(=O)C(C(=O)NCC(=O)NC1CC1)c1nc2ccc(-c3cccc(F)n3)cc2s1` (stereo not shown) [Example 314, N-[(cyclopropyl-carbamoyl)methyl]-2-[6-(6-fluoropyridin-2-yl)-1,3-benzothiazol-2-yl]-2-(2-methoxyethane-sulfonyl)acetamide] are within 1.5-fold of each other in IC50: 160 nM for the first, 150 nM for the second.

First: COCCS(=O)(=O)C(C(=O)NCC(=O)NC1CC1)c1nc2ccc(-c3cncc(Cl)c3)cc2s1 (stereo not shown) [Example 304]
Second: COCCS(=O)(=O)C(C(=O)NCC(=O)NC1CC1)c1nc2ccc(-c3ccnc(F)c3)cc2s1 (stereo not shown) [Example 311, N-[(cyclopropyl-carbamoyl)methyl]-2-[6-(2-fluoropyridin-4-yl)-1,3-benzothiazol-2-yl]-2-(2-methoxyethane-sulfonyl)acetamide]
The IC50 of the first is 1.8-fold lower: 52 nM for the first, 94 nM for the second. The first is the more potent here.

Going from `COCCNC(=O)c1ccc(-c2ccc3nc(C(C(=O)NCC(=O)NC4CC4)S(=O)(=O)CCOC)sc3c2)cc1` (stereo not shown) [Example 306, 4-[2-({[(cyclopropyl-carbamoyl)methyl]carbamoyl}(2-methoxyethane-sulfonyl)methyl)-1,3-benzothiazol-6-yl]-N-(2-methoxyethyl) benzamide] to `COCCS(=O)(=O)C(C(=O)NCC(=O)NC1CC1)c1nc2ccc(-c3ccc(COC)cc3)cc2s1` (stereo not shown) [Example 308, N-[(cyclopropyl-carbamoyl)methyl]-2-(2-methoxyethane-sulfonyl)-2-{6-[4-(methoxymethyl)phenyl]-1,3-benzothiazol-2-yl}acetamide], the IC50 rises from 13 nM to 27 nM (2.1-fold). The first is the more potent here.

`COCCS(=O)(=O)C(C(=O)NCC(=O)NC1CC1)c1nc2ccc(-c3ccc(F)cc3)cc2s1` (stereo not shown) [Example 307, N-[(cyclopropyl-carbamoyl)methyl]-2-[6-(4-fluorophenyl)-1,3-benzothiazol-2-yl]-2-(2-methoxyethane-sulfonyl)acetamide] and `COCCS(=O)(=O)C(C(=O)NCC(=O)NC1CC1)c1nc2ccc(-c3ccc(=O)n(C)c3)cc2s1` (stereo not shown) [Example 315, N-[(cyclopropyl-carbamoyl)methyl]-2-(2-methoxyethane-sulfonyl)-2-[6-(1-methyl-6-oxo-1,6-dihydropyridin-3-yl)-1,3-benzothiazol-2-yl}acetamide] are within 1.5-fold of each other in IC50: 15 nM for the first, 12 nM for the second.

First: COCCS(=O)(=O)C(C(=O)NCC(=O)NC1CC1)c1nc2ccc(-c3ccc(C(=O)N4CCOCC4)cc3)cc2s1 (stereo not shown) [Example 309, N-[(cyclopropyl-carbamoyl)methyl]-2-(2-methoxyethane-sulfonyl)-2-{6-[4-(morpholine-4-arbonyl)phenyl]-1,3-benzothiazol-2-yl}acetamide]
Second: COCCS(=O)(=O)C(C(=O)NCC(=O)NC1CC1)c1nc2ccc(-c3ccn(C)c(=O)c3)cc2s1 (stereo not shown) [Example 316, N-[(cyclopropyl-carbamoyl)methyl]-2-(2-methoxyethane-sulfonyl)-2-[6-(1-methyl-2-oxo-1,2-dihydropyridin-4-yl)-1,3-benzothiazol-2-yl]acetamide]
The IC50 of the first is 3.8-fold higher: 50 nM for the first, 13 nM for the second.

Compared with `COCCS(=O)(=O)C(C(=O)NCC(=O)NC1CC1)c1nc2ccc(-c3cccc(Cl)n3)cc2s1` (stereo not shown) [Example 312, 2-[6-(6-chloropyridin-2-yl)-1,3-benzothiazol-2-yl]-N-[(cyclopropyl-carbamoyl)methyl]-2-(2-methoxyethane-sulfonyl)acetamide], `COCCS(=O)(=O)C(C(=O)NCC(=O)NC1CC1)c1nc2ccc(-c3ccnn3C)cc2s1` (stereo not shown) [Example 313, N-[(cyclopropyl-carbamoyl)methyl]-2-(2-methoxyethane-sulfonyl)-2-[6-(1-methyl-1H-pyrazol-5-yl)-1,3-benzothiazol-2-yl]acetamide] is 1.7-fold higher in IC50: 188 nM for the first, 313 nM for the second. The first is the more potent here.

First: COCCS(=O)(=O)C(C(=O)NCC(=O)NC1CC1)c1nc2ccc(-c3cc(C)nn3C)cc2s1 (stereo not shown) [Example 317, N-[(cyclopropyl-carbamoyl)methyl]-2-[6-(1,3-dimethyl-1H-pyrazol-5-yl)-1,3-benzothiazol-2-yl]-2-(2-methoxyethane-sulfonyl)acetamide]
Second: CS(=O)(=O)C(C(=O)NCC(=O)NC1CC1)c1nc2cc(F)c(-c3ccnc(F)c3)cc2s1 (stereo not shown) [Example 321, N-[(cyclopropyl-carbamoyl)methyl]-2-[5-fluoro-6-(2-fluoropyridin-4-yl)-1,3-benzothiazol-2-yl]-2-methanesulfonyl-acetamide]
The IC50 of the first is 3.5-fold lower: 4 nM for the first, 14 nM for the second.

In the case of `Cc1cc(F)ncc1-c1cc2sc(C(C(=O)NCC(=O)NC3CC3)S(C)(=O)=O)nc2cc1F` (stereo not shown) [Example 319, N-[(cyclopropyl-carbamoyl)methyl]-2-[5-fluoro-6-(6-fluoro-4-methylpyridin-3-yl)-1,3-benzothiazol-2-yl]-2-methanesulfonyl-acetamide], the IC50 is reported as 15 nM.
